Measurements from patent EP0565377B1, “Therapeutic agents for use in the treatment of Parkinson's Disease” (Kyowa Hakko Kogyo Co., Ltd., priority 1992, dated 1993).

Key:
dd-strain male mice = assay: Acute toxicity test (minimum lethal dose, oral); type: in vivo; conditions: oral administration, mortality seven days after administration, three mice per group
Protocol: Test compounds were orally administered to groups of dd-strain male mice weighing 20±1 g, each group consisting of three mice. Seven days after the administration, minimum lethal dose (MLD) of each compound was determined by observing the mortality.

[1] = system: Haloperidol-Induced Catalepsy; assay: Effect on haloperidol-induced catalepsy; type: in vivo, male ddY mice; conditions: Table 4-1, test compound 10 mg/kg orally
Protocol: The experiment was performed by using several groups of 5-weeks-old male ddY mice (weighing 22 to 24 g, Japan SLC), each group consisting of 5 mice. Haloperidol (Janssen Pharmaceutica) suspended in 0.3% CMC was intraperitoneally administered to each mouse at a dose of 1.0 mg/kg. Test compounds were suspended in 0.3% CMC or in injectable distilled water (Otsuka Pharmaceutical Co., Ltd.) containing Tween 80. L-DOPA (Kyowa Hakko Kogyo Co., Ltd.) and benserazide hydrochloride (Kyowa Hakko Kogyo Co., Ltd.) were suspended in 0.3% CMC. One hour after the haloperidol administration, the test compound suspensions and the control suspension [0.3% CMC or injectable distilled water (Otsuka Pharmaceutical Co., Ltd.) containing Tween 80] containing no test compound were orally administered to separate groups of the mice (0.1 ml per 10 g of body weight). One hour after the administration of the test compound, the forelimbs of each mouse and subsequently the hindlimbs of the same mouse were placed on a 4.5 cm-high, 1.0 cm-wide bar and catalepsy was estimated. All of the test compounds were orally administered at a dose of 10 mg/kg, and L-DOPA (100 mg/kg) and benserazide (25 mg/kg) were intraperitoneally administered together as a control experiment. The catalepsy score and the standard of judgment are shown below.
The effect of the compounds was evaluated by the total of the catalepsy scores of five mice in each group (25 points at the full). The groups wherein the total score was not more than 20 points were estimated to be effective. The number of the animals showing remission against catalepsy is the number of the mice for which the catalepsy score was not more than 4 points.

| Compound | MLD (dd-strain male mice) [mg/kg] | further results |
| --- | --- | --- |
| CCCn1c(=O)c2[nH]c(/C=C/c3ccc4c(c3)OCCO4)nc2n(CCC)c1=O [Compound 16, (E)-8-[2-(1,4-benzodioxan-6-yl)vinyl]-1,3-dipropylxanthine] | > 300 | inhibition in vivo at 10 mg/kg ([1]; Mus musculus, po, 1 h, rate of decrease in total score based on control group, read-out: Remission Rate (%)): 20%; Number of the Animals Showing Remission ([1]; of 5 mice, catalepsy score not more than 4 points): 4; Total Score ([1]; total catalepsy score of 5 mice (25 points at the full), 0.3% CMC control 25): 20 points |
| CCCn1c(=O)c2[nH]c(/C=C/c3ccc(C)c(C)c3)nc2n(CCC)c1=O [Compound 30, (E)-8-(3,4-dimethylstyryl)-1,3-dipropylxanthine] | > 100 |  |
| CCCn1c(=O)c2c(nc(/C=C/c3cc(OC)c(OCc4ccccc4)c(OC)c3)n2C)n(CCC)c1=O [Compound 27, (E)-8-(4-benzyloxy-3,5-dimethoxystyryl)-7-methyl-1,3-dipropylxanthine] | > 100 |  |
| CCCCOc1ccc(/C=C/c2nc3c([nH]2)c(=O)n(CCC)c(=O)n3CCC)cc1 [Compound 51, (E)-8-(4-butoxystyryl)-1,3-dipropylxanthine] | > 100 |  |
| CCCn1c(=O)c2c(nc(/C=C/c3ccc(OCC)c(OCC)c3)n2C)n(CCC)c1=O [Compound 54, (E)-8-(3,4-diethoxystyryl)-7-methyl-1,3-dipropylxanthine] | > 100 |  |
| CCCn1c(=O)c2[nH]c(/C=C/c3ccccc3F)nc2n(CCC)c1=O [Compound 42, (E)-8-(2-fluorostyryl)-1,3-dipropylxanthine] | > 100 |  |
| CCCn1c(=O)c2c(nc(/C=C/c3cc(C)c(OC)cc3C)n2C)n(CCC)c1=O [Compound 45, (E)-8-(4-methoxy-2,5-dimethylstyryl)-7-methyl-1,3-dipropylxanthine] | > 300 |  |
| CCCn1c(=O)c2[nH]c(/C=C/c3cccc(OC)c3OC)nc2n(CCC)c1=O [Compound 28, (E)-8-(2,3-dimethoxystyryl)-1,3-dipropylxanthine] | > 100 |  |
| CCCn1c(=O)c2c(nc(/C=C/c3ccccc3Cl)n2C)n(CCC)c1=O [Compound 41, (E)-8-(2-chlorostyryl)-7-methyl-1,3-dipropylxanthine] | > 100 |  |
| CCCOc1ccc(/C=C/c2nc3c([nH]2)c(=O)n(CCC)c(=O)n3CCC)cc1 [Compound 49, (E)-8-(4-propoxystyryl)-1,3-dipropylxanthine] | > 100 |  |
| CCCn1c(=O)c2c(nc(/C=C/c3cccc(OC)c3OC)n2C)n(CCC)c1=O [Compound 29, (E)-8-(2,3-dimethoxystyryl)-7-methyl-1,3-dipropylxanthine] | > 300 |  |
| CCCn1c(=O)c2nc(/C=C/c3cccc(F)c3)[nH]c2n(CCC)c1=O [Compound 36, (E)-8-(3-fluorostyryl)-1,3-dipropylxanthine] | > 100 |  |
| CCCn1c(=O)c2[nH]c(/C=C/c3ccccc3Cl)nc2n(CCC)c1=O [Compound 40, (E)-8-(2-chlorostyryl)-1,3-dipropylxanthine] | > 100 |  |
| CCCn1c(=O)c2c(nc(/C=C/c3cccc([N+](=O)[O-])c3)n2C)n(CCC)c1=O [Compound 35, (E)-7-methyl-8-(3-nitrostyryl)-1,3-dipropylxanthine] | > 100 |  |
| CCCn1c(=O)c2c(nc(/C=C/c3ccccc3F)n2C)n(CCC)c1=O [Compound 43, (E)-8-(2-fluorostyryl)-7-methyl-1,3-dipropylxanthine] | > 100 |  |
| CCCn1c(=O)c2nc(/C=C/c3cc(OC)c(OC)cc3OC)[nH]c2n(CCC)c1=O [Compound 22, (E)-1,3-dipropyl-8-(2,4,5-trimethoxystyryl)-xanthine] | > 300 |  |
| CCCCOc1ccc(/C=C/c2nc3c(c(=O)n(CCC)c(=O)n3CCC)n2C)cc1 [Compound 52, (E)-8-(4-butoxystyryl)-7-methyl-1,3-dipropylxanthine] | > 100 |  |
| CCCn1c(=O)c2[nH]c(/C=C/c3cc(OC)c(OCc4ccccc4)c(OC)c3)nc2n(CCC)c1=O [Compound 26, (E)-8-(4-benzyloxy-3,5-dimethoxystyryl)-1,3-dipropylxanthine] | > 100 |  |
| CCCn1c(=O)c2nc(/C=C/c3cc(OC)cc(OC)c3)[nH]c2n(CCC)c1=O [Compound 32, (E)-8-(3,5-dimethoxystyryl)-1,3-dipropylxanthine] | > 100 |  |
| CCCn1c(=O)c2c(nc(/C=C/c3cccc(Cl)c3)n2C)n(CCC)c1=O [Compound 39, (E)-8-(3-chlorostyryl)-7-methyl-1,3-dipropylxanthine] | > 100 |  |

| Compound | MLD (dd-strain male mice) [mg/kg] | further results |
| --- | --- | --- |
| CCCn1c(=O)c2[nH]c(/C=C/c3ccc(OCC)cc3)nc2n(CCC)c1=O [Compound 47, (E)-8-(4-ethoxystyryl)-1,3-dipropylxanthine] | > 100 |  |
| CCCn1c(=O)c2nc(/C=C/c3cccc(Cl)c3)[nH]c2n(CCC)c1=O [Compound 38, (E)-8-(3-chlorostyryl)-1,3-dipropylxanthine] | > 100 |  |
| CCCn1c(=O)c2c(nc(/C=C/c3ccc4c(c3)OCCO4)n2C)n(CCC)c1=O [Compound 17, (E)-8-[2-(1,4-benzodioxan-6-yl)vinyl]-7-methyl-1,3-dipropylxanthine] | > 300 |  |
| CCCn1c(=O)c2[nH]c(/C=C/c3ccc(OC)c(C)c3C)nc2n(CCC)c1=O [Compound 12, (E)-8-(4-methoxy-2,3-dimethylstyryl)-1,3-dipropylxanthine] | > 300 |  |
| CCCn1c(=O)c2c(nc(/C=C/c3cc(Br)c(OC)c(OC)c3)n2C)n(CCC)c1=O [Compound 60, (E)-8-(3-bromo-4,5-dimethoxystyryl)-7-methyl-1,3-dipropylxanthine] | > 100 |  |
| CCCn1c(=O)c2c(nc(/C=C/c3cccc(F)c3)n2C)n(CCC)c1=O [Compound 37, (E)-8-(3-fluorostyryl)-7-methyl-1,3-dipropylxanthine] | > 100 |  |
| CCCn1c(=O)c2c(nc(/C=C\c3ccc(OC)c(OC)c3)n2C)n(CCC)c1=O [Compound 46, (Z)-8-(3,4-dimethoxystyryl)-7-methyl-1,3-dipropylxanthine] | > 300 |  |
| CCCn1c(=O)c2[nH]c(/C=C/c3ccc(OC)c4ccccc34)nc2n(CCC)c1=O [Compound 61, (E)-8-[2-(4-methoxynaphthyl)vinyl]-1,3-dipropylxanthine] | > 100 |  |
| CCCn1c(=O)c2[nH]c(/C=C/c3cc(C)c(OC)cc3C)nc2n(CCC)c1=O [Compound 44, (E)-8-(4-methoxy-2,5-dimethylstyryl)-1,3-dipropylxanthine] | > 300 |  |
| CCCn1c(=O)c2c(nc(/C=C/c3ccc(OC)c(O)c3)n2C)n(CCC)c1=O [Compound 63, (E)-8-(3-hydroxy-4-methoxystyryl)-7-methyl-1,3-dipropylxanthine] | > 100 |  |
| CCCn1c(=O)c2[nH]c(/C=C/c3cc(OC)c(OC)cc3Br)nc2n(CCC)c1=O [Compound 57, (E)-8-(2-bromo-4,5-dimethoxystyryl)-1,3-dipropylxanthine] | > 300 |  |
| CCCn1c(=O)c2[nH]c(/C=C/c3ccc(OC)c(Br)c3)nc2n(CCC)c1=O [Compound 55, (E)-8-(3-bromo-4-methoxystyryl)-1,3-dipropylxanthine] | > 100 |  |
| CCCn1c(=O)c2[nH]c(/C=C/c3cccc([N+](=O)[O-])c3)nc2n(CCC)c1=O [Compound 34, (E)-8-(3-nitrostyryl)-1,3-dipropylxanthine] | > 100 |  |
| CCCn1c(=O)c2[nH]c(/C=C/c3ccc(OC)c(C)c3OC)nc2n(CCC)c1=O [Compound 14, (E)-8-(2,4-dimethoxy-3-methylstyryl)-1,3-dipropylxanthine] | > 100 |  |
| CCCn1c(=O)c2c(nc(/C=C/c3cc(OC)cc(OC)c3)n2C)n(CCC)c1=O [Compound 33, (E)-8-(3,5-dimethoxystyryl)-7-methyl-1,3-dipropylxanthine] | > 100 |  |
| CCCn1c(=O)c2c(nc(/C=C/c3ccc(OC)c(Br)c3)n2C)n(CCC)c1=O [Compound 56, (E)-8-(3-bromo-4-methoxystyryl)-7-methyl-1,3-dipropylxanthine] | > 100 |  |
| CCCn1c(=O)c2c(nc(/C=C/c3cc(OC)c(OC)cc3Br)n2C)n(CCC)c1=O [Compound 58, (E)-8-(2-bromo-4,5-dimethoxystyryl)-7-methyl-1,3-dipropylxanthine] | > 300 |  |
| CCCn1c(=O)c2c(nc(/C=C/c3ccc(OC)c(OC)c3OC)n2C)n(CCC)c1=O [Compound 21, (E)-7-methyl-1,3-dipropyl-8-(2,3,4-trimethoxystyryl)xanthine] | > 300 |  |
| CCCn1c(=O)c2c(nc(/C=C/c3ccc(OC)c4ccccc34)n2C)n(CCC)c1=O [Compound 62, (E)-8-[2-(4-methoxynaphthyl)vinyl]-7-methyl-1,3-dipropylxanthine] | > 100 |  |
